{"source": "patent US20180271930A1", "about": "“METHOD FOR RAISING POULTRY” (priority 2015, published 2018)", "key": {"[1]": {"assay": "Examination 1: body weight of initial-phase chicks fed additive-containing feed for 3 days", "format": "in vivo, broiler chicks of the Chunky breed (Ross 308)", "conditions": "n = 6", "procedure": "Newly hatched broiler chicks of the Chunky breed (Ross 308, Ross Breeders Ltd.) were tested. […] Blood and skeletal muscles were collected to observe gene expression levels of MyoD, myogenin, myostatin, and IGF-I (insulin-like growth factor-I). An ammonium salt was used as oxidized glutathione (GSSG). The GSSG contained 95.6% by mass of oxidized glutathione, and the content of reduced glutathione mixed therein was 0.1% by mass or less. […] The amount of GSSG used herein was determined in terms of the amount of free oxidized glutathione. In all the following Examinations, the amounts of GSSG are expressed in terms of the amount of free oxidized glutathione."}, "[2]": {"assay": "Examination 2-1: breeding performance at 21 and 28 days old after GSSG prestarter feed", "format": "in vivo, broiler chicks", "conditions": "0.01% by mass GSSG feed for first 72 h, n = 6", "procedure": "Newly hatched broiler chicks (Ross Breeders Ltd.) were fed with a feed composition for 3 days. The feed composition contained GSSG at a level of 0.01% by mass which was thought to be appropriate based on Examination 1. […] Two groups, which were a control group and a GSSG addition group (0.01% by mass), were set. In each group, 6 males and 6 females were tested. Chicks received at 0 day old were fed with a test feed composition (initial-phase feed composition) during 72 hours after the receipt. […] Their body weights, breast meat weights, leg meat weights, and liver weights were measured. As the initial-phase feed composition, the feed composition comprising 0.01% by mass of GSSG used in Examination 1 was used for the GSSG addition group, and the feed composition (ME3,100 kcal/kg, CP21) free of GSSG used in Examination 1 was used for the control group. […] An ammonium salt was used as oxidized glutathione (GSSG). The GSSG contained 95.6% by mass of oxidized glutathione, and the content of reduced glutathione mixed therein was 0.1% by mass or less."}, "[3]": {"assay": "Examination 2-2: breeding performance at 40 days old after GSSG prestarter feed", "format": "in vivo, broiler chicks (Ross 308)", "conditions": "0.01% by mass GSSG feed for first 72 h, n = 12", "procedure": "Thereafter, the composition was replaced by an ordinary feed composition of the same type and the chicks were raised until they became 40 days old. […] Two groups, which were a control group and a GSSG addition group (0.01% by mass) were set. In each group, 6 males and 6 females were tested. Chicks received at 0 day old were fed with a test feed composition (initial-phase feed composition) during 72 hours after the receipt. […] The body weight was measured, and the meat yield and feed conversion ratio were determined. As the initial-phase feed composition, the 0.01% by mass GSSG-containing feed composition used in Examination 1 was used in the GSSG addition group, and the feed composition (ME3,100 kcal/kg, CP21) free of GSSG used in Examination 1 was used for the control group. […] An ammonium salt was used as oxidized glutathione (GSSG). The GSSG contained 95.6% by mass of oxidized glutathione, and the content of reduced glutathione mixed therein was 0.1% by mass or less. […] The term “meat yield” refers to a proportion of meat excluding bones and fats with respect to the body weight. The meat yield can be determining by performing slaughtering and butchering, collecting meat alone, and weighing the collected meat."}, "[4]": {"tested_on": "myogenin", "assay": "Examination 4: myogenin gene expression in superficial pectoral muscle at 3 days old", "format": "in vivo, broiler chicks", "conditions": "0.01% by mass additive in feed for 3 days, FIG. 3A, n=4", "procedure": "FIGS. 3A to 3C illustrate graphs showing the expression of genes related to skeletal muscle cell differentiation in superficial pectoral muscles upon administration of each feed composition in Examination 4 (n=4). […] A relative value of the expression level of each factor is expressed as an average±standard deviation of values obtained by dividing the expression levels of each factor by the expression level of RPS9. Newly hatched broiler chicks (Ross Breeders Ltd.) were tested. A control group (=additive-free group), a GSSG addition group (0.01% by mass), and a GSH addition group (0.01% by mass) each consisting of 5 males and 5 females were set and fed with a feed composition for 3 days. […] At this timing, 2 males and 2 females in each group were slaughtered to collect blood and skeletal muscles. The gene expression levels of the MyoD family (myogenin, myostatin, and Pax7) were observed. […] Statistics were analyzed using a mixed model in consideration of a gender difference and an interaction between males and females. A method for determining gene expressions of the above factors in skeletal muscles is described above. An ammonium salt was used as oxidized glutathione (GSSG). The GSSG contained 95.6% by mass of oxidized glutathione, and the content of reduced glutathione mixed therein was 0.1% by mass or less. […]"}}}
{"substance": "oxidized glutathione [GSSG]", "values": [{"measurement": "Weight at 3 days old", "setting": "[1]; feed with 0.01% by mass GSSG for 3 days", "result": "78.1 ± 4.0", "unit": "g"}, {"measurement": "Weight at 3 days old", "setting": "[1]; feed with 0.1% by mass GSSG for 3 days", "result": "72.8 ± 5.6", "unit": "g"}, {"measurement": "Breast meat", "setting": "[2]; 21 days old", "result": "118 ± 4", "unit": "g"}, {"measurement": "Leg meat", "setting": "[2]; 21 days old", "result": "136 ± 6", "unit": "g"}, {"measurement": "Weight", "setting": "[2]; 21 days old", "result": "933 ± 65", "unit": "g"}, {"measurement": "Breast meat", "setting": "[2]; 28 days old", "result": "186 ± 15", "unit": "g"}, {"measurement": "Leg meat", "setting": "[2]; 28 days old", "result": "206 ± 12", "unit": "g"}, {"measurement": "Weight", "setting": "[2]; 28 days old", "result": "1500 ± 149", "unit": "g"}, {"measurement": "Meat yield", "setting": "[3]; 40 days old", "result": "42.1 ± 1.1", "unit": "% by mass"}, {"measurement": "Weight", "setting": "[3]; 40 days old", "result": "2214 ± 79", "unit": "g"}, {"measurement": "Feed conversion ratio (mass ratio)", "setting": "[3]; until 40 days old", "result": "1.52 ± 0.09"}, {"measurement": "myogenin expression level vs control group", "setting": "[4]", "result": "significantly decreased"}]}
